Data: PMC6147116 (Journal of Enzyme Inhibition and Medicinal Chemistry, 2018)
Read-outs that look alike come from different tables or passages of the source.

What was measured:
Format in all cases: biochemical
human aromatase = molecular target: T1, human aromatase (Homo sapiens, UniProt P11511); assay: Aromatase inhibition, in vitro radiosubstrate incubation (testosterone to E2 conversion), human placental microsomes; details: for remaining activity at 10 µM: read-out: Arom Rel.conv. ± SD
T1 construct: from tissue; host or cells: human term placenta, microsomal fraction
T1 sequence (P11511 1-503): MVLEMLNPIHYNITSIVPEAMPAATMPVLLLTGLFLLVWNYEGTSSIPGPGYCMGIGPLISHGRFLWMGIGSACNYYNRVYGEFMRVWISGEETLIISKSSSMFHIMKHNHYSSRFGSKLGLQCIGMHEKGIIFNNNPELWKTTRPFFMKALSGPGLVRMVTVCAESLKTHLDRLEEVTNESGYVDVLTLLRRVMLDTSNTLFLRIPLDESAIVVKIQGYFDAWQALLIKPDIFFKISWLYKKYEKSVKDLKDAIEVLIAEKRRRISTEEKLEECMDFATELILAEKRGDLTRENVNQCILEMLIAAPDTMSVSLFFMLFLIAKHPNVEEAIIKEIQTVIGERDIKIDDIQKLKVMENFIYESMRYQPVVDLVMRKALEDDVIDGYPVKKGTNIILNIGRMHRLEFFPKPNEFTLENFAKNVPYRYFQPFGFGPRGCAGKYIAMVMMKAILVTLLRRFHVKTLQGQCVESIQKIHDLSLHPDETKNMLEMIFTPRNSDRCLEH
Method: (§1) Enzyme inhibition studies were performed by in vitro radiosubstrate incubations using human term placenta cytosol and microsomas as enzyme sources. […] Relative conversions compared to non-inhibited controls (100%) were measured in the presence of 10 µM concentration of the test compound. […] Mechanistic and kinetic investigations were performed and inhibitory constants (Ki) were determined for selected compounds.
(§2) Enzymatic incubations were carried out in the HEPES buffer medium at a final volume of 200
(§3) µl. The substrate was added to the incubate in 20 µl of a 25 v/v% propylene glycol in HEPES buffer solution, whereas test compounds were applied in 10 µl of dimethyl sulfoxide solution.
Incubations were performed at 37 °C and terminated by cooling and the addition of organic solvents of the subsequent extraction procedure. Control samples with no inhibitor and blank samples were incubated simultaneously. The radioactivity of the products formed was measured by means of liquid scintillation counting (LSC) and taken as indicator of the […]
In the aromatase assays the microsoma suspension was incubated with appropriate concentration of unlabelled testosterone (2) substrate spiked with [1,2,6,7-3H]testosterone tracer, and in the presence of 0.1 mM NADPH cofactor excess. (In this case, solution of the substrate was prepared with acetonitrile instead of propylene glycol.) Incubation time was 40 min. The incubation mixture was extracted with toluene, then the toluene phase was drained and washed with HEPES buffer. Aromatase products containing phenolic hydroxy group were extracted with 1.2 M sodium hydroxide solution from the toluene extract and the alkaline phase was measured in the LSC. […]
was extracted with toluene. […]
(§4) In the general procedure, incubations were performed as described. Concentrations of the substrates were 1.0 µM, and the test compounds were applied at 10 µM final concentration in the incubate. Relative conversions compared to non-inhibited controls (100%) were determined. The assays were performed in triplicate, and the mean value and the standard deviation (SD) were calculated. […]
(§5) these cases, conversions were measured at 10–15 different concentrations in the appropriate interval between 0.001–50 µM. IC50 results were calculated by using unweighted iterative least squares logistic curve fitting by means of the “absolute IC50 calculation“ function of the GraphPad Prism 4.0 software (GraphPad Software, Inc., San Diego, CA, USA).
Kinetic analyses were performed via measurement of the enzymatic transformation using different fixed substrate concentrations and varied inhibitor concentrations. The Dixon’s linear transformation (1/velocity vs. inhibitor concentration) was applied for evaluation and the inhibition constant (Ki) was determined from abscissa of intersection of the lines of different substrate concentrations. Mechanism of binding was identified according to the […]

steroid sulfatase (STS) = molecular target: T2, steroid sulfatase (STS) (Homo sapiens, UniProt P08842); assay: STS inhibition, in vitro radiosubstrate incubation (release of E1 from E1S), human placental microsomes; Dixon kinetic analysis; details: for remaining activity at 10 µM: read-out: STS Rel.conv. ± SD
T2 construct: from tissue; host or cells: human term placenta, microsomal fraction
T2 sequence (P08842 22-583): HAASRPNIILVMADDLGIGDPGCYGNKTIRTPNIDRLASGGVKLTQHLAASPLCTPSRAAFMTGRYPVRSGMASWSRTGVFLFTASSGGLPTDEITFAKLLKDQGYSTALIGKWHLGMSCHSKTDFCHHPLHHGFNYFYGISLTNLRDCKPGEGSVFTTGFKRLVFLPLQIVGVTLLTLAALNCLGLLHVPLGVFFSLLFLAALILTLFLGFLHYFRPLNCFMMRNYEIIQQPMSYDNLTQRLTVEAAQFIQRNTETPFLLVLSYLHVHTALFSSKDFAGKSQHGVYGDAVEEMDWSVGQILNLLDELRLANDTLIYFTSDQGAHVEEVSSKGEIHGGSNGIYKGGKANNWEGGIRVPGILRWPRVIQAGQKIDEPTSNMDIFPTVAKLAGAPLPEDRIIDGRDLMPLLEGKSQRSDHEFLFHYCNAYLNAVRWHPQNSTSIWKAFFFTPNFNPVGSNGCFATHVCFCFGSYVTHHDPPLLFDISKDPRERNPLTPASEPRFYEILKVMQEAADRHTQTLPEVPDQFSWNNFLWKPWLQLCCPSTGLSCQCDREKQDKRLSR
Method: as §1
Kinetic analyses of selected compounds 7a and 16c were performed by measurement of enzyme activities using different fixed substrate concentrations and varied inhibitor concentrations.
as §2, §3
(§6) Incubations were performed at 37 °C and terminated by cooling and the addition of organic solvents of the subsequent extraction procedure. Control samples with no inhibitor and blank samples were incubated simultaneously. […]
The incubation time was 2.5 min. […]
as §4, §5
(§7) Kinetic analyses were performed via measurement of the enzymatic transformation using different fixed substrate concentrations and varied inhibitor concentrations. The Dixon’s linear transformation (1/velocity vs. inhibitor concentration) was applied for evaluation and the inhibition constant (Ki) was determined from abscissa of intersection of the lines of different substrate concentrations. Mechanism of binding was identified according to the Dixon’s graphs and the secondary plot of slopes of the Dixon’s lines vs. 1/substrate […]
The inhibitor compounds were preincubated with the appropriate placenta fraction in a volume of 4.0 µl at 37 °C for various time periods (2.5-40 min). Following this procedure, […]

[1] = molecular target: T3, 17β-hydroxysteroid dehydrogenase type 1 (17β-HSD1) (Homo sapiens, UniProt P14061); assay: 17β-HSD1 inhibition, in vitro radiosubstrate incubation (E1 to E2), human placental cytosol; Dixon kinetic analysis; details: for IC50: E1 substrate 1.0 µM, NADPH excess; for 17β-HSD1 Rel.conv. ± SD: 10 µM test compound, non-inhibited control 100%, mean ± SD, n = 3
T3 sequence (P14061 1-328): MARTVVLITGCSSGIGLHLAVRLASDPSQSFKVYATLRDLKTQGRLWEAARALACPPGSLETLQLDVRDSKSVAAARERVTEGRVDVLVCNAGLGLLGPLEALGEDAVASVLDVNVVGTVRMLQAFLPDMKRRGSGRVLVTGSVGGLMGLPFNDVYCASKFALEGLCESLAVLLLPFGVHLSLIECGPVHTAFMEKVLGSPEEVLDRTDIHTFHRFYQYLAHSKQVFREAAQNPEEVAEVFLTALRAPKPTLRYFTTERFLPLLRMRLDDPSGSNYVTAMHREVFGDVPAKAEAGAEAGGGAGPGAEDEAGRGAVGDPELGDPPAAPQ
Method: as §1
Inhibitors that bind to the steroid site of 17β-HSD1 can bind to both the free enzyme and the binary enzyme–cofactor complex by random kinetic mechanism.
as §2, §3, §6
The incubation time was 2.5 min. The product 17β-estradiol (E2, 5) was extracted with ethyl acetate and isolated by a TLC method (details are published in our earlier reference).
as §4, §5, §7
The inhibitor compounds were preincubated with the appropriate placenta fraction in a volume of 4.0 µl at 37 °C for various time periods (2.5-40 min). Following this procedure, samples were diluted with the incubation medium to 50-fold. Enzyme activity measurements

[2] = 10 µM test compound, non-inhibited control 100%, mean ± SD, n = 3
[3] = E1S substrate 1.0 µM, read-out: STS IC50 ± SD

SMILES | remaining activity at 10 µM (human aromatase; [2]) | IC50 (steroid sulfatase (STS); [3]) | IC50 ([1]; read-out: 17β-HSD1 IC50 ± SD) | remaining activity at 10 µM (steroid sulfatase (STS); [2]) | further results
C[C@]12CCC[C@H]1[C@@H]1CCc3cc(O)c(I)cc3[C@H]1CC2 [14a] | 89 ± 9% | 3900 ± 1600 nM | 2900 ± 1600 nM | – | –
C[C@]12CC[C@@H]3c4cc(Br)c(O)c(Br)c4CC[C@H]3[C@@H]1CCC2=O [8b] | 81 ± 5% | 2100 ± 600 nM | 960 ± 450 nM | – | –
C[C@]12CCC[C@H]1[C@@H]1CCc3cc(O)c(Cl)cc3[C@H]1CC2 [14c] | 88 ± 10% | 7000 ± 1900 nM | 2600 ± 1300 nM | – | –
C[C@]12CC[C@@H]3c4ccc(O)c(Cl)c4CC[C@H]3[C@@H]1CCC2=O [7c] | – | – | – | – | remaining activity at 10 µM (human aromatase): 92 ± 3%; IC50 (steroid sulfatase (STS)): 1600 ± 300 nM; IC50 ([1]; 17β-HSD1 IC50 ± SD): 600 ± 160 nM
C[C@@]12CC[C@@H]3c4cc(Cl)c(O)c(Cl)c4CC[C@H]3[C@@H]1CCC2=O [12c] | – | – | – | – | remaining activity at 10 µM (human aromatase): 101 ± 4%; remaining activity at 10 µM (steroid sulfatase (STS)): 70 ± 3%; IC50 ([1]; 17β-HSD1 IC50 ± SD): 2200 ± 600 nM
C[C@]12CCC[C@H]1[C@@H]1CCc3c(ccc(O)c3Br)[C@H]1CC2 [15b] | 90 ± 8% | 3700 ± 1200 nM | 11000 ± 4000 nM | – | 17β-HSD1 Rel.conv. ± SD [1]: 49 ± 12%
C[C@]12CCC[C@H]1[C@@H]1CCc3c(cc(Br)c(O)c3Br)[C@H]1CC2 [16b] | – | – | – | – | remaining activity at 10 µM (human aromatase): 82 ± 6%; IC50 (steroid sulfatase (STS)): 7500 ± 2000 nM; IC50 ([1]; 17β-HSD1 IC50 ± SD): 4100 ± 2500 nM
C[C@@]12CC[C@@H]3c4cc(Cl)c(O)cc4CC[C@H]3[C@@H]1CCC2=O [10c] | 106 ± 6% | – | 330 ± 100 nM | 57 ± 1% | –
C[C@]12CCC[C@H]1[C@@H]1CCc3cc(O)c(Br)cc3[C@H]1CC2 [14b] | 97 ± 5% | 4100 ± 1300 nM | 1300 ± 800 nM | – | –
C[C@]12CC[C@@H]3c4cc(I)c(O)c(I)c4CC[C@H]3[C@@H]1CCC2=O [8a] | 86 ± 6% | – | – | 80 ± 13% | 17β-HSD1 Rel.conv. ± SD [1]: 55 ± 7%
C[C@]12CC[C@@H]3c4cc(I)c(O)cc4CC[C@H]3[C@@H]1CCC2=O [6a, 2-Iodoestrone] | 66% | – | 64 ± 34 nM | 64 ± 3% | IC50 (human aromatase; testosterone substrate 1.0 µM, read-out: Arom IC50 ± SD): > 10000 nM
C[C@@]12CC[C@@H]3c4ccc(O)cc4CC[C@H]3[C@@H]1CCC2=O [compound 9, 13α-Estrone] | 85 ± 13% | – | – | 96 ± 1% | –
C[C@@]12CC[C@@H]3c4ccc(O)c(Cl)c4CC[C@H]3[C@@H]1CCC2=O [11c] | – | – | – | – | remaining activity at 10 µM (human aromatase): 98 ± 3%; remaining activity at 10 µM (steroid sulfatase (STS)): 80 ± 7%; IC50 ([1]; 17β-HSD1 IC50 ± SD): 2600 ± 1000 nM
C[C@]12CCC[C@H]1[C@@H]1CCc3cc(O)ccc3[C@H]1CC2 [compound 13, 17-deoxy-13α-estrone] | 95 ± 12% | – | 1100 ± 330 nM | 76 ± 5% | Ki ([1]; from Dixon plot, cofactor excess): 2000 nM
C[C@]12CC[C@@H]3c4ccc(O)c(Br)c4CC[C@H]3[C@@H]1CCC2=O [7b, 4-bromoestrone] | 91 ± 6% | 890 ± 300 nM | 300 ± 200 nM | – | –
C[C@]12CCC[C@H]1[C@@H]1CCc3c(cc(I)c(O)c3I)[C@H]1CC2 [16a] | 94 ± 2% | – | – | 59 ± 13% | 17β-HSD1 Rel.conv. ± SD [1]: 61 ± 7%
C[C@]12CC[C@@H]3c4cc(Cl)c(O)c(Cl)c4CC[C@H]3[C@@H]1CCC2=O [8c] | – | – | – | – | remaining activity at 10 µM (human aromatase): 82 ± 4%; IC50 (steroid sulfatase (STS)): 3000 ± 900 nM; IC50 ([1]; 17β-HSD1 IC50 ± SD): 590 ± 160 nM
C[C@]12CCC[C@H]1[C@@H]1CCc3c(ccc(O)c3Cl)[C@H]1CC2 [15c] | 89 ± 1% | 6300 ± 1800 nM | 4500 ± 2000 nM | – | –
